Source: patent US7282522B2, “Hydroxamic acid derivatives and the method for preparing thereof” (Amorepacific Corporation, priority 2003, dated 2007)

How the values were obtained:
rabbits = settings: rabbit, in vivo
Experimental: Test was performed using fifty-six (56) of healthy male rabbits whose backs were depilated. […] 0.5ml of the test sample solution was applied to the right site of 2.5 cm×2.5 cm region on each of the depilated back. Left site with no sample treated was compared as a control. 24 hours or 72 hours later, skin abnormality such as erythema, crust and edema was observed.
Based on the score of skin response, skin irritation was evaluated according to Draize's P.I.I.(Primary Irritation Index) and compared with retinoic acid.

white guinea pigs = test: Phototoxicity test (UVA irradiation); settings: for Evaluation (phototoxicity): 1%(w/v) solution, UVA 15 J/cm^2; for Phototoxic index: 50 μl of 1%(w/v) solution, UVA 320~380 nm 15 J/cm^2, observed 24, 48 and 72 hours
RARγ = target: T1, RARγ (Homo sapiens, UniProt P13631); test: RARE-luciferase reporter assay in transfected CV-1 cells (affinity to retinoic acid receptor), RARγ; format: cell-based; settings: treated 24 hours at final concentration 10^−4M, control group 5000
T1 construct: expressed in transfected cells; host or cells: CV-1 cells (ATCC)
T1 sequence (P13631 1-454): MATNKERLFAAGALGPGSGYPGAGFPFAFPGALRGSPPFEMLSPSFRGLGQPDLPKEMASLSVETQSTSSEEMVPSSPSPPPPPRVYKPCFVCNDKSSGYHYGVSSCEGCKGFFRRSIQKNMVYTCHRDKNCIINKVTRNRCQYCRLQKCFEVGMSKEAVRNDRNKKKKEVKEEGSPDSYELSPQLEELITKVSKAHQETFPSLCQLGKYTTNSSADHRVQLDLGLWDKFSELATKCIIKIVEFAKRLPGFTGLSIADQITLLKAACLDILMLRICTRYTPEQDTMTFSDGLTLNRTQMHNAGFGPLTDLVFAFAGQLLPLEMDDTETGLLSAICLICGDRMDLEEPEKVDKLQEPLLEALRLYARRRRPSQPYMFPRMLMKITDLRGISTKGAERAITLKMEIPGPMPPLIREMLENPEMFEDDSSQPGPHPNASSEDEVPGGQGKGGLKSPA
In short: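 CV-1 cells in DMEM with 2.5% FBS, 5,000 per well, transfected 24 h after seeding with 10 ng pECE-RARα, pECE-RARγ, 100 ng RARE-tk-Luc reporter and 100 ng β-galactosidase vector. Read-out is RARE-driven luciferase.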

RARα = target: T2, RARα (Homo sapiens, UniProt P10276); test: RARE-luciferase reporter assay in transfected CV-1 cells (affinity to retinoic acid receptor), RARα; format: cell-based; settings: treated 24 hours at final concentration 10^−4M, control group 1000
T2 construct: expressed in transfected cells; host or cells: CV-1 cells (ATCC)
T2 sequence (P10276 1-462): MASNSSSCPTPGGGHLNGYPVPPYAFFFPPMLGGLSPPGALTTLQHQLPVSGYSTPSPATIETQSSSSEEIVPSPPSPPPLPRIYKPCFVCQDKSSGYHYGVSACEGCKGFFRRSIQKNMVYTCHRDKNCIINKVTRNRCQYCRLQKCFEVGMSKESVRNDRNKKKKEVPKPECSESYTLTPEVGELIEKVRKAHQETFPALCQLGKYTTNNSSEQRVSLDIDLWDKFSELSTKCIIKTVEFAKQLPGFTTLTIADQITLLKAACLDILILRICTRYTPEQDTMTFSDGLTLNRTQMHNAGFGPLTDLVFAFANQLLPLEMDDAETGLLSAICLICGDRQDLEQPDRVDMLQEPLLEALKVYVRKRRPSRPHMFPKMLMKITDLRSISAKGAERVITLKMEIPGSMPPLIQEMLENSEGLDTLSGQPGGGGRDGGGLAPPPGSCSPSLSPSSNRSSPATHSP
In short: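 CV-1 cells co-transfected with pECE-RARα or pECE-RARγ, RARE-tk-Luc reporter and β-galactosidase vector. Starting 24 h post-transfection, cells were treated for 24 h with compounds at a final 10^−4M; luciferase reporter read-out.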

collagenase = test: Inhibition of collagenase expression in human fibroblasts (ELISA kit); format: cell-based; settings: 10^−4M, 24 hours, serum-free medium, relative to control group = 100
In short: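 Serum-starved human fibroblasts were treated for 24 h with 10^−4M test material in serum-free DMEM. Collagenase in the culture fluid was measured by sandwich ELISA read at 405 nm. Values are expressed as % of the untreated control (=100).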

procollagen type I = test: Effect on collagen biosynthesis (procollagen type I ELISA) in human fibroblasts; format: cell-based; settings: 10^−4M, 24 hours, serum-free medium, relative to control group = 100
Experimental: Human fibroblasts were seeded into 24-well plate at 1×10^5 cells per well and then cultured to 90% of growth.
For each supernatant, procollagen production was measured with procollagen type I ELISA kit.

elastase = test: Inhibition of elastase expression in human fibroblasts (ELISA kit); format: cell-based; settings: 10^−4M, 24 hours, serum-free medium, relative to control group = 100
In short: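 Elastase in fibroblast culture fluid quantified by sandwich ELISA: 3 h capture, then chromophore-conjugated secondary antibody, then colour development, stopped with 1M sulfuric acid. Absorbance read at 405 nm. Expression given as % of the untreated control absorbance, with control set to 100.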

| Compound | Evaluation (skin irritation) (rabbits) | P.I.I. (Primary Irritation Index) (rabbits) | Evaluation (phototoxicity) (white guinea pigs) | Phototoxic index (white guinea pigs) | Luciferase activity RARγ (RARγ) | Luciferase activity RARα (RARα) | Collagenase expression (%) (collagenase) | Collagen biosynthesis (%) (procollagen type I) | Elastase expression (%) (elastase) |
| --- | --- | --- | --- | --- | --- | --- | --- | --- | --- |
| O=C(Cc1ccc(NC(=O)c2ccccc2)cc1)NO [Example 23, N-[4-(N-hydroxycarbamoylmethyl)phenyl]benzamide] | No irritation | 0.321 | No phototoxicity (lower value than 0.5, criterion value to be estimated as no phototoxicity) | 0 | 13200 | 13000 | 77 | 131 | 79 |
| CN(C(=O)c1ccc(C(C)(C)C)cc1)c1ccc(C(=O)NO)cc1 [Example 19, N-[4-(N-hydroxycarbamoyl)phenyl]-N-methyl-[4-tert-butylphenyl]carboxyamide] | No irritation | 0.223 | No phototoxicity (lower value than 0.5, criterion value to be estimated as no phototoxicity) | 0 | 11200 | 10020 | 70 | 120 | 80 |
| N-[4-(N-hydroxycarbamoyl)phenyl]adamantyl carboxyamide [Example 10] | No irritation | 0.375 | No phototoxicity (lower value than 0.5, criterion value to be estimated as no phototoxicity) | 0 | 12000 | 11000 | 75 | 106 | 77 |
